Experimental data reported in patent US11053204B2, “Pyrimidinyloxy benzene derivatives as herbicides” (FMC Corporation, priority 2015, dated 2021).

Experiments:
Format in all cases: in vivo
[1] = system: ducksalad (Heteranthera limosa); test: Test B flooded paddy test, plant response rating; conditions: 250 g ai/ha; Flood; scale of 0 to 100 where 0 is no effect and 100 is complete control; 13 to 15 days
How it was run: (§1)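 Ratings were visual and made relative to untreated controls after 13 to 15 greenhouse days.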

[2] = system: barnyardgrass (Echinochloa crus-galli); test: Test B flooded paddy test, plant response rating; conditions: 250 g ai/ha; Flood; scale of 0 to 100 where 0 is no effect and 100 is complete control; 13 to 15 days
How it was run: as §1

[3] = system: rice (Oryza sativa); test: Test B flooded paddy test, plant response rating; conditions: 250 g ai/ha; Flood; scale of 0 to 100 where 0 is no effect and 100 is complete control; 13 to 15 days
How it was run: as §1

[4] = system: sedge, umbrella (small-flower umbrella sedge, Cyperus difformis); test: Test B flooded paddy test, plant response rating; conditions: 250 g ai/ha; Flood; scale of 0 to 100 where 0 is no effect and 100 is complete control; 13 to 15 days
How it was run: as §1

[5] = system: Italian ryegrass (Lolium multiflorum); test: Test A postemergence, visual injury rating; conditions: 0 is no effect, 100 is complete control; for Ryegrass, Italian plant response rating: 31 g ai/ha, 0 to 100 scale, approximately 10 days
How it was run: (§2)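 Visual 0–100 rating (100 = complete control) taken about 10 d post-treatment relative to untreated checks. Preemergence: directed soil spray on sown loam/sand pots. Postemergence: seedlings 2–10 cm, 1–2 leaf. Non-phytotoxic solvent formulation with surfactant.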

[6] = system: blackgrass (Alopecurus myosuroides); test: Test A postemergence, visual injury rating; conditions: 0 is no effect, 100 is complete control; for Blackgrass plant response rating: 31 g ai/ha, 0 to 100 scale, approximately 10 days
How it was run: as §2

[7] = system: galium (catchweed bedstraw, Galium aparine); test: Test A postemergence, visual injury rating; conditions: 0 is no effect, 100 is complete control; for Galium plant response rating: 31 g ai/ha, 0 to 100 scale, approximately 10 days
How it was run: as §2

[8] = system: pigweed (Amaranthus retroflexus); test: Test A postemergence, visual injury rating; conditions: 0 is no effect, 100 is complete control; for Pigweed plant response rating: 31 g ai/ha, 0 to 100 scale, approximately 10 days
How it was run: as §2

[9] = system: ragweed (common ragweed, Ambrosia elatior); test: Test A postemergence, visual injury rating; conditions: 0 is no effect, 100 is complete control; for Ragweed plant response rating: 31 g ai/ha, 0 to 100 scale, approximately 10 days
How it was run: as §2

[10] = system: wheat (Triticum aestivum); test: Test A postemergence, visual injury rating; conditions: 0 is no effect, 100 is complete control; for Wheat plant response rating: 31 g ai/ha, 0 to 100 scale, approximately 10 days
How it was run: as §2

[11] = system: barnyardgrass (Echinochloa crus-galli); test: Test A postemergence, visual injury rating; conditions: 0 is no effect, 100 is complete control; for Barnyardgrass plant response rating: 31 g ai/ha, 0 to 100 scale, approximately 10 days
How it was run: as §2

[12] = system: corn (Zea mays); test: Test A postemergence, visual injury rating; conditions: 0 is no effect, 100 is complete control; for Corn plant response rating: 31 g ai/ha, 0 to 100 scale, approximately 10 days
How it was run: as §2

[13] = system: giant foxtail (Setaria faberii); test: Test A postemergence, visual injury rating; conditions: 0 is no effect, 100 is complete control; for Foxtail, Giant plant response rating: 31 g ai/ha, 0 to 100 scale, approximately 10 days
How it was run: as §2

[14] = system: kochia (Kochia scoparia); test: Test A postemergence, visual injury rating; conditions: 0 is no effect, 100 is complete control; for Kochia plant response rating: 31 g ai/ha, 0 to 100 scale, approximately 10 days
How it was run: as §2

[15] = system: Italian ryegrass (Lolium multiflorum); test: Test A preemergence, visual injury rating; conditions: for Plant response rating, Ryegrass, Italian: 31 g ai/ha, 0 to 100 scale, 0 no effect, 100 complete control; for Ryegrass, Italian plant response rating: 0 to 100 scale (0 no effect, 100 complete control)
How it was run: as §2

[16] = system: pigweed (Amaranthus retroflexus); test: Test A preemergence, visual injury rating; conditions: for Plant response rating, Pigweed: 31 g ai/ha, 0 to 100 scale, 0 no effect, 100 complete control; for Pigweed plant response rating: 0 to 100 scale (0 no effect, 100 complete control)
How it was run: as §2

[17] = system: ragweed (common ragweed, Ambrosia elatior); test: Test A preemergence, visual injury rating; conditions: for Plant response rating, Ragweed: 31 g ai/ha, 0 to 100 scale, 0 no effect, 100 complete control; for Ragweed plant response rating: 0 to 100 scale (0 no effect, 100 complete control)
How it was run: as §2

[18] = system: barnyardgrass (Echinochloa crus-galli); test: Test A preemergence, visual injury rating; conditions: for Plant response rating, Barnyardgrass: 31 g ai/ha, 0 to 100 scale, 0 no effect, 100 complete control; for Barnyardgrass plant response rating: 0 to 100 scale (0 no effect, 100 complete control)
How it was run: as §2

[19] = system: giant foxtail (Setaria faberii); test: Test A preemergence, visual injury rating; conditions: for Plant response rating, Foxtail, Giant: 31 g ai/ha, 0 to 100 scale, 0 no effect, 100 complete control; for Foxtail, Giant plant response rating: 0 to 100 scale (0 no effect, 100 complete control)
How it was run: as §2

[20] = system: kochia (Kochia scoparia); test: Test A preemergence, visual injury rating; conditions: for Plant response rating, Kochia: 31 g ai/ha, 0 to 100 scale, 0 no effect, 100 complete control; for Kochia plant response rating: 0 to 100 scale (0 no effect, 100 complete control)
How it was run: as §2

Row | SMILES | Plant response rating, Ducksalad [1] | Plant response rating, Barnyardgrass [2] | Plant response rating, Rice [3] | Plant response rating, Sedge, Umbrella [4] | Ryegrass, Italian plant response rating (0 to 100 scale) ([5]; 125 g ai/ha) | Blackgrass plant response rating (0 to 100 scale) ([6]; 125 g ai/ha) | Galium plant response rating (0 to 100 scale) ([7]; 125 g ai/ha) | Pigweed plant response rating (0 to 100 scale) ([8]; 125 g ai/ha) | Ragweed plant response rating (0 to 100 scale) ([9]; 125 g ai/ha) | Wheat plant response rating (0 to 100 scale) ([10]; 125 g ai/ha) | Barnyardgrass plant response rating (0 to 100 scale) ([11]; 125 g ai/ha) | Corn plant response rating (0 to 100 scale) ([12]; 125 g ai/ha) | Foxtail, Giant plant response rating (0 to 100 scale) ([13]; 125 g ai/ha) | Kochia plant response rating (0 to 100 scale) ([14]; 125 g ai/ha) | Ryegrass, Italian plant response rating ([15]; 125 g ai/ha) | Pigweed plant response rating ([16]; 125 g ai/ha) | Ragweed plant response rating ([17]; 125 g ai/ha) | Barnyardgrass plant response rating ([18]; 125 g ai/ha) | Foxtail, Giant plant response rating ([19]; 125 g ai/ha) | Kochia plant response rating ([20]; 125 g ai/ha) | also measured
1 | CN(CCC(F)(F)F)C(=O)c1c(Br)cccc1Oc1ncc(Cl)cn1 [Compound 19] | 0 | 0 | 0 | 0 | 0 | 0 | 0 | 10 | 0 | 0 | 0 | 0 | 0 | 0 | 0 | 20 | 0 | 0 | 0 | 20 | Ryegrass, Italian plant response rating [5]: 0; Blackgrass plant response rating [6]: 0; Galium plant response rating [7]: 0; Pigweed plant response rating [8]: 10; Ragweed plant response rating [9]: 0; Wheat plant response rating [10]: 0; Barnyardgrass plant response rating [11]: 0; Corn plant response rating [12]: 0; Foxtail, Giant plant response rating [13]: 0; Kochia plant response rating [14]: 0; Plant response rating, Ryegrass, Italian [15]: 0; Plant response rating, Pigweed [16]: 0; Plant response rating, Ragweed [17]: 0; Plant response rating, Barnyardgrass [18]: 0; Plant response rating, Foxtail, Giant [19]: 0; Plant response rating, Kochia [20]: 0
2 | CC(C)=CCOC(=O)c1c(Br)cccc1Oc1ncc(Cl)cn1 [Compound 11] | 0 | 0 | 0 | 0 | 0 | 0 | 10 | 10 | 0 | 0 | 10 | 0 | 20 | 0 | 0 | 0 | 0 | 0 | 40 | 0 | Ryegrass, Italian plant response rating (0 to 100 scale) ([5]; 500 g ai/ha): 0; Blackgrass plant response rating (0 to 100 scale) ([6]; 500 g ai/ha): 20; Galium plant response rating (0 to 100 scale) ([7]; 500 g ai/ha): 20; Pigweed plant response rating (0 to 100 scale) ([8]; 500 g ai/ha): 60; Ragweed plant response rating (0 to 100 scale) ([9]; 500 g ai/ha): 0; Wheat plant response rating (0 to 100 scale) ([10]; 500 g ai/ha): 0; Barnyardgrass plant response rating (0 to 100 scale) ([11]; 500 g ai/ha): 20; Corn plant response rating (0 to 100 scale) ([12]; 500 g ai/ha): 10; Foxtail, Giant plant response rating (0 to 100 scale) ([13]; 500 g ai/ha): 20; Kochia plant response rating (0 to 100 scale) ([14]; 500 g ai/ha): 40; Ryegrass, Italian plant response rating ([15]; 500 g ai/ha): 0; Pigweed plant response rating ([16]; 500 g ai/ha): 20; Ragweed plant response rating ([17]; 500 g ai/ha): 0; Barnyardgrass plant response rating ([18]; 500 g ai/ha): 30; Foxtail, Giant plant response rating ([19]; 500 g ai/ha): 100; Kochia plant response rating ([20]; 500 g ai/ha): 0
3 | CC(C)(C)OC(=O)c1c(F)cccc1Oc1ncc(Cl)cn1 [Compound 43] | 0 | 0 | 0 | 0 | 0 | 0 | 40 | 40 | 0 | 0 | 10 | 0 | 0 | 10 | 0 | 90 | 0 | 40 | 60 | 100 | Ryegrass, Italian plant response rating [5]: 0; Blackgrass plant response rating [6]: 0; Galium plant response rating [7]: 20; Pigweed plant response rating [8]: 10; Ragweed plant response rating [9]: 0; Wheat plant response rating [10]: 0; Barnyardgrass plant response rating [11]: 0; Corn plant response rating [12]: 0; Foxtail, Giant plant response rating [13]: 0; Kochia plant response rating [14]: 0; Plant response rating, Ryegrass, Italian [15]: 0; Plant response rating, Pigweed [16]: 30; Plant response rating, Ragweed [17]: 0; Plant response rating, Barnyardgrass [18]: 0; Plant response rating, Foxtail, Giant [19]: 0; Plant response rating, Kochia [20]: 100
